Broadly, the viability is a read-out of living cells in per cent, often relative to untreated cells. In general, inhibition refers to the relative decrease from the control value, in per cent.

Structures are written as SMILES. Non-standard residues stand in square brackets, D forms with d. Residues, ends and D or L forms follow the SMILES beside them. pGlu = O=C1CC[C@@H](C(=O)O)N1

Here are results for 34 compounds from patent US12564583B2, “Small molecules against cereblon to enhance effector T cell function” (H. LEE MOFFITT CANCER CENTER AND RESEARCH INSTITUTE, INC., priority 2016, dated 2026).

For data set [1], the system named is IL-2. As to the kind of experiment: IL-2 relative to DMSO. It is filed as cell-based.
Data set [2] is described as follows: Viability relative to DMSO. It is filed as cell-based. Set-up: concentration or dose not given beside the values.
The target of data set [3] is thalidomide binding domain (TBD) of cereblon (Homo sapiens, UniProt Q96SW2). As to the kind of experiment: Cereblon binding (DSF, FP/FI). The conditions noted are these: for inhibition at 200 µM: read-out: Cereblon Binding (≥50% inhibition at 200 μM). The protocol: Several libraries are available for screening inhibitors. Virtual analysis was formulated and then theoretical design of chemical test kit and virtual screen of test kit were carried out. Physical binding studies were also completed for the initial compounds using DSF and FP assays after they are fully tested. TEST KITs that represent the compounds identified from each of the available chemical libraries based on virtual chemical structures were also made.

The subject of data set [4] is K562. As to the kind of experiment: Viability of sensitive cell line relative to DMSO. The data set is classed as cell-based.
Data set [5] concerns U-937. As to the kind of experiment: Viability of sensitive cell line relative to DMSO. The data set is classed as cell-based.
Data set [6] deals with THP-1. As to the kind of experiment: Viability of sensitive cell line relative to DMSO. The data set is classed as cell-based.
Data set [7] relates to HL-60. As to the kind of experiment: Viability of sensitive cell line relative to DMSO. It is filed as cell-based.
The nature of data set [8]: Viability of sensitive cell line relative to DMSO. The data set is classed as cell-based. Set-up: concentration or dose not given beside the values. The conditions noted are these: human, lymphocytes.
Data set [9] relates to MM1.S. As to the kind of experiment: Viability of sensitive cell line relative to DMSO. The data set is classed as cell-based, human. The protocol:
(§1) For proliferation studies, 1-2×10^4 cells per well were seeded in a 96-well plate and were treated with using cell-counting-8 kit (CCK8) (Dojindo, Rockville, MD) according to manufacturer's protocol.

The test system of data set [10] is U266. As to the kind of experiment: Viability of sensitive cell line relative to DMSO. The data set is classed as cell-based, human. The protocol: as §1

thalidomide binding domain (TBD) of cereblon, sequence (Q96SW2 318-426 limits assumed): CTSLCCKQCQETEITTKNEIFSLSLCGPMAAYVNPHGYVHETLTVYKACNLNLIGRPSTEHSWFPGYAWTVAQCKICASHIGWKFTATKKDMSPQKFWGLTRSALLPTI

On to `O=C1CCC(NCc2ccccn2)C(=O)N1` (centres unmarked), for which the “IL-2 (%) (Relative to DMSO)” value in [1] is on record as 7.8%. Also, the viability in data set [2] turned out to be 84.9%. Also, the inhibition at 200 µM in data set [3] is > 50%.

Turning to `O=C1CCC(NCc2ccc(N3CCOCC3)cc2)C(=O)N1` (centres unmarked), the “IL-2 (%) (Relative to DMSO)” value in data set [1] was 14.9%. Besides, the viability in data set [2] turned out to be 94.5%. Further, the inhibition at 200 µM in data set [3] was > 50%.

Take `Cc1ccc(C(=O)NC2CCC(=O)NC2=O)o1` (centres unmarked): the “IL-2 (%) (Relative to DMSO)” value in data set [1] was 48.0%. For the same compound, in [2], the viability was 84.7%. Moreover, in data set [3], the inhibition at 200 µM was > 50%.

On to `C=CCCCCCCCCC(=O)NC1CCC(=O)NC1=O` (centres unmarked), for which, in data set [1], the “IL-2 (%) (Relative to DMSO)” value stood at 15.6%. Besides, the viability in [2] amounted to 82.3%. In data set [3], the inhibition at 200 µM was > 50%.

Take `Nc1cccc(S(=O)(=O)NC2CCC(=O)NC2=O)c1` (centres unmarked): the “IL-2 (%) (Relative to DMSO)” value in [1] is 127.0%. In addition, the viability in data set [2] was 99.7%. Further, the inhibition at 200 µM in data set [3] was > 50%.

As for `O=C1CCC(NC(=O)CCNS(=O)(=O)c2c(F)cccc2F)C(=O)N1` (centres unmarked), the “IL-2 (%) (Relative to DMSO)” value in [1] is 120.1%. For the same compound, the viability in data set [2] is 99.4%. Besides, the inhibition at 200 µM in data set [3] is > 50%.

Turning to `O=C(NCCn1ccc(=O)[nH]c1=O)c1ccccc1`, the “IL-2 (%) (Relative to DMSO)” value in data set [1] came to 124.5%. In addition, in [2], the viability was found to be 84.2%. Further, the inhibition at 200 µM in data set [3] is > 50%.

For the compound `O=C1CCC(NC(=O)CCNS(=O)(=O)c2ccccc2)C(=O)N1` (centres unmarked), the “IL-2 (%) (Relative to DMSO)” value in data set [1] is on record as 32.7%. For the same compound, in [2], the viability came out at 77.2%. In addition, the inhibition at 200 µM in data set [3] was > 50%.

As to `O=C1CCC(NC(=O)c2ccccc2NC(=O)CCl)C(=O)N1` (centres unmarked), the “IL-2 (%) (Relative to DMSO)” value in data set [1] came out at 40.3%. In data set [2], the viability was determined as 69.9%. Moreover, the inhibition at 200 µM in data set [3] was > 50%.

Turning to `O=c1ccn(CCNS(=O)(=O)Cc2ccccc2)c(=O)[nH]1`, in data set [1], the “IL-2 (%) (Relative to DMSO)” value amounted to 138.2%. Moreover, the viability in data set [2] turned out to be 76.7%. In addition, the inhibition at 200 µM in data set [3] was > 50%.

With `Nc1ccc(Cl)cc1C(=O)NCCN1CCC(=O)NC1=O`, the “IL-2 (%) (Relative to DMSO)” value in [1] is recorded as 20.6%. In [2], the viability was determined as 78.8%. For the same compound, the inhibition at 200 µM in data set [3] was > 50%.

As to `O=C1CCN(CCNC(=O)c2ccccc2)C(=O)N1`, the “IL-2 (%) (Relative to DMSO)” value in [1] amounted to 47.1%. In addition, the viability in [2] was found to be 84.9%. For the same compound, the inhibition at 200 µM in [3] was > 50%.

Consider `CCN(Cc1ccccc1)C1CCC(=O)NC1=O` (centres unmarked), for which the “IL-2 (%) (Relative to DMSO)” value in [1] was determined as 32.1%. The viability in data set [2] was 99.1%. Further, the inhibition at 200 µM in [3] is > 50%.

Turning to `O=C1CCC(NCc2ccccc2)C(=O)N1` (centres unmarked), the “IL-2 (%) (Relative to DMSO)” value in [1] came out at 40.4%. For the same compound, in data set [2], the viability came to 98%. Further, in data set [3], the inhibition at 200 µM was > 50%.

Turning to `O=C1CCC(N2CCC(c3ccccc3)CC2)C(=O)N1` (centres unmarked), the “IL-2 (%) (Relative to DMSO)” value in data set [1] was found to be 41.5%. The viability in [2] was 100%. For the same compound, the inhibition at 200 µM in [3] is > 50%.

As to `CN(Cc1ccc2c(c1)OCO2)C1CCC(=O)NC1=O` (centres unmarked), the “IL-2 (%) (Relative to DMSO)” value in data set [1] was determined as 43%. Further, the viability in data set [2] amounted to 106%. The inhibition at 200 µM in data set [3] was > 50%.

Regarding `CC(=O)N[C@H](C(=O)NC1CCC(=O)NC1=O)C(C)C` (some centres unmarked), the “IL-2 (%) (Relative to DMSO)” value in data set [1] is listed as 126.4%. For the same compound, the viability in [2] was 79.4%. In addition, the “Cereblon Binding (≥50% inhibition at 200 μM)” value in data set [3] is “DSF (check) FI (borderline)”.

`NC(=O)[C@H](Cc1ccccc1)NC(=O)[C@@H]1CCC(=O)N1`: in [1], the “IL-2 (%) (Relative to DMSO)” value was determined as 39.8%. Further, in data set [2], the viability worked out at 74.7%. Moreover, the “Cereblon Binding (≥50% inhibition at 200 μM)” value in [3] is given as “No”.

On to `Nc1cccc2c1C(=O)N(C1CC(=O)NC1=O)C2=O` (centres unmarked), for which the “IL-2 (%) (Relative to DMSO)” value in data set [1] was found to be 193.8%. In [2], the viability came out at 97%. In data set [3], the “Cereblon Binding (≥50% inhibition at 200 μM)” value is listed as “No”.

In the case of `CN1C(=O)CCC(N2Cc3c(N)cccc3C2=O)C1=O.Cl` (centres unmarked), the “IL-2 (%) (Relative to DMSO)” value in data set [1] came out at 199.2%. For the same compound, the viability in [2] was found to be 106%. Besides, the “Cereblon Binding (≥50% inhibition at 200 μM)” value in [3] was “No”.

As to `O=C1c2ccccc2C(=O)N1c1cc[nH]c(=O)c1`, the “IL-2 (%) (Relative to DMSO)” value in [1] came out at 123.3%. The viability in [2] came to 95.3%. Moreover, in data set [3], the “Cereblon Binding (≥50% inhibition at 200 μM)” value is listed as “No”.

As for `COc1ccc(C2=NNC(=O)CC2)cc1OC`, the “IL-2 (%) (Relative to DMSO)” value in data set [1] is reported as 12.4%. Moreover, the viability in data set [2] worked out at 100%. The “Cereblon Binding (≥50% inhibition at 200 μM)” value in data set [3] is on record as “No”.

Regarding `O=C1CC[C@@H](C(=O)Nc2ccccc2)N1`, the “IL-2 (%) (Relative to DMSO)” value in data set [1] is reported as 0.5%. Further, the viability in data set [2] stood at 106%. For the same compound, in [3], the “Cereblon Binding (≥50% inhibition at 200 μM)” value is given as “No”.

As to `O=C1CN(N2C(=O)c3cccc([N+](=O)[O-])c3C2=O)C(=O)N1`, the “IL-2 (%) (Relative to DMSO)” value in [1] turned out to be 50.0%. In data set [2], the viability stood at 96.4%. The “Cereblon Binding (≥50% inhibition at 200 μM)” value in data set [3] is “No”.

On to `O=C1CC(N2C(=O)c3cccc([N+](=O)[O-])c3C2=O)C(=O)N1` (centres unmarked), for which the “IL-2 (%) (Relative to DMSO)” value in data set [1] worked out at 133.4%. Besides, the viability in [2] was found to be 81.9%. In data set [3], the “Cereblon Binding (≥50% inhibition at 200 μM)” value was “No”.

With `O=C1CC(N2C(=O)c3ccccc3C2=O)C(=O)N1` (centres unmarked), the “IL-2 (%) (Relative to DMSO)” value in data set [1] is 10.9%. Moreover, in [2], the viability stood at 75.3%. Also, the “Cereblon Binding (≥50% inhibition at 200 μM)” value in [3] was “No”.

For `O=C1C[C@H](N2C(=O)c3ccccc3C2=O)C(=O)N1`, the “IL-2 (%) (Relative to DMSO)” value in data set [1] is 44.4%. Besides, the viability in data set [2] is 85.6%. Moreover, the “Cereblon Binding (≥50% inhibition at 200 μM)” value in data set [3] is listed as “No”.

`Nc1ccccc1S(=O)(=O)NCCn1ccc(=O)[nH]c1=O`: in data set [1], the “IL-2 (%) (Relative to DMSO)” value is 31.8%. Besides, the viability in data set [2] stood at 74.6%. Moreover, the “Cereblon Binding (≥50% inhibition at 200 μM)” value in data set [3] was “No”.

With `CN(Cc1ccccc1)C1CC(=O)NC1=O` (centres unmarked), the “Viability (%) (Relative to DMSO)” value in data set [4] stood at 116.7%; in [5], 98.5%; in data set [6], 32.6%; in data set [7], 10.15%; in data set [9], 1.1%; in data set [10], 0%. Further, the viability in [8] amounted to 96.8%. Also, in data set [3], the “Cereblon Binding (≥50% inhibition at 200 μM)” value is reported as “No”.

In the case of `Cn1c(=O)ccn(CCCCc2ccccc2)c1=O`, the “Viability (%) (Relative to DMSO)” value in [4] is recorded as 17.7%; in data set [5], 50.5%; in data set [6], 32.8%; in data set [7], 39.3%; in data set [9] it was 43.0%; in data set [10], 32.7%. Further, in data set [8], the viability was found to be 94.2%. Moreover, the “Cereblon Binding (≥50% inhibition at 200 μM)” value in [3] is “No”.

In the case of `COC(=O)[C@H](C)NC(=O)[C@@H]1CCC(=O)N1` ([pGlu]-Ala-OMe), the “IL-2 (%) (Relative to DMSO)” value in [1] turned out to be 11.7%. Besides, the viability in data set [2] was 101%. Further, the “Cereblon Binding (≥50% inhibition at 200 μM)” value in data set [3] is on record as “No”.

As to `CC(C)C[C@H](NC(=O)[C@@H]1CCC(=O)N1)C(N)=O` ([pGlu]-Leu-NH2), the “IL-2 (%) (Relative to DMSO)” value in [1] is given as 24.6%. The viability in data set [2] stood at 110%. For the same compound, the “Cereblon Binding (≥50% inhibition at 200 μM)” value in [3] is “No”.

With `Nc1cccc2c1C(=O)N(C1CCC(=O)NC1=O)C2=O` (centres unmarked) [drawing 76], the “IL-2 (%) (Relative to DMSO)” value in data set [1] was found to be 208.6%. In addition, the viability in data set [2] came out at 96.3%. The inhibition at 200 µM in data set [3] is > 50%.

Turning to `Nc1cccc2c1CN(C1CCC(=O)NC1=O)C2=O` (centres unmarked) [drawing 123], in data set [8], the viability worked out at 99.9%.
